Laboratory results from US6369069B1 (Aventis Pharma Deutschland GmbH, priority 1998, dated 2002).

system: Na^+-dependent Cl^−/HCO3^− exchanger (NCBE); assay: Inhibition of the Na+-dependent Cl−/HCO3− exchanger (NCBE) in human endothelial cells (pHi recovery, BCECF fluorescence, FLIPR); assay type: cell-based; details: 10 μM
How it was run: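 ECV-304 cells loaded with 5 μM BCECF-AM in NH4Cl-containing saline, then placed in Na+/HCO3−-free buffer to acidify. pHi recovery started with Na+/HCO3− buffer (50 μM HOE 642) plus compound at various concentrations. Fluorescence kinetics over 2 min at 35 °C, normalised to 100% and 0% (HCO3−-free) controls.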

| Structure (SMILES) | Residual activity % of the NCBE at 10 μM |
| --- | --- |
| COc1cccc(CN(Cc2ccc(-c3ccccc3S(=O)(=O)NC#N)cc2)C(=O)Nc2c(F)cccc2F)c1 [Example 301] | 87.9% |
| N#CNS(=O)(=O)c1ccccc1-c1ccc(CN(Cc2ccccn2)C(=O)Cc2ccsc2)cc1 [Example 228] | 94.8% |
| COc1ccc(CN(Cc2ccc(-c3ccccc3S(=O)(=O)NC#N)cc2)C(=O)c2ccccc2F)cc1 [Example 39] | 51.3% |
| COc1ccc(CCN(Cc2ccc(-c3ccccc3S(=O)(=O)NC#N)cc2)C(=O)C(c2ccccc2)c2ccccc2)cc1 [Example 120] | 81.3% |
| CN(C)c1ccc(CN(Cc2ccc(-c3ccccc3S(=O)(=O)NC#N)cc2)C(=O)Cc2cccs2)cc1 [Example 140] | 54.2% |
| CC(C)(C)CC(=O)N(Cc1ccc(-c2ccccc2S(=O)(=O)NC#N)cc1)CC1CC1 [Example 161] | 81.6% |
| N#CNS(=O)(=O)c1ccccc1-c1ccc(CN(Cc2ccccc2)C(=O)c2ccccc2F)cc1 [Example 37] | 52.0% |
| Cc1ccccc1CN(Cc1ccc(-c2ccccc2S(=O)(=O)NC#N)cc1)C(=O)CC1CCCC1 [Example 362] | 44.1% |
| N#CNS(=O)(=O)c1ccccc1-c1ccc(CN(Cc2ccc3c(c2)OCO3)C(=O)c2cccs2)cc1 [Example 87] | 54.8% |
| N#CNS(=O)(=O)c1ccccc1-c1ccc(CN(Cc2ccccc2Cl)C(=O)C(c2ccccc2)c2ccccc2)cc1 [Example 111] | 80.5% |
| N#CNS(=O)(=O)c1ccccc1-c1ccc(CN(Cc2ccc(C(F)(F)F)cc2)C(=O)Cc2cccs2)cc1 [Example 235] | 67.1% |
| COCCC(=O)N(CC=C(C)CCC=C(C)C)Cc1ccc(-c2ccccc2S(=O)(=O)NC#N)cc1 [Example 323] | 23.6% |
| C[C@H](c1ccccc1)N(Cc1ccc(-c2ccccc2S(=O)(=O)NC#N)cc1)C(=O)Cc1ccccc1 [Example 128] | 61.4% |
| CCN(Cc1ccc(-c2ccccc2S(=O)(=O)NC#N)cc1)C(=O)Cc1ccsc1 [Example 231] | 57.8% |
| N#CNS(=O)(=O)c1ccccc1-c1ccc(CN(Cc2cccc(-c3ccccc3)c2)C(=O)CC2CCCCC2)cc1 [Example 357] | 61.9% |
| C=CCOC(=O)N(Cc1ccccc1)Cc1ccc(-c2ccccc2S(=O)(=O)NC#N)cc1 [Example 43] | 41.6% |
| COc1ccccc1C(=O)N(CC=C(C)CCC=C(C)C)Cc1ccc(-c2ccccc2S(=O)(=O)NC#N)cc1 [Example 333] | 22.3% |
| COc1ccc(CN(Cc2ccc(-c3ccccc3S(=O)(=O)NC#N)cc2)C(C)=O)cc1 [Example 69] | 95.4% |
| CCN(Cc1ccc(-c2ccccc2S(=O)(=O)NC#N)cc1)C(=O)C(=O)c1cccs1 [Example 199] | 54.7% |
| N#CNS(=O)(=O)c1ccccc1-c1ccc(CN(Cc2ccccc2Cl)C(=O)Cc2ccc(Cl)cc2)cc1 [Example 152] | 29.5% |
| CC(C)(C)CC(=O)N(CCOc1ccccc1)Cc1ccc(-c2ccccc2S(=O)(=O)NC#N)cc1 [Example 160] | 71.6% |
| COc1cc(CN(Cc2ccc(-c3ccccc3S(=O)(=O)NC#N)cc2)C(=O)CC(C)(C)C)cc(OC)c1OC [Example 162] | 30.2% |
| N#CNS(=O)(=O)c1ccccc1-c1ccc(CN(Cc2ccc(Cl)cc2)C(=O)Cc2cccs2)cc1 [Example 28] | 95.2% |
| N#CNS(=O)(=O)c1ccccc1-c1ccc(CN(Cc2ccc(Cl)c(Cl)c2)C(=O)C(NC(=O)OCc2ccccc2)c2ccccc2)cc1 (centres unmarked) [Example 260] | 69.8% |
| N#CNS(=O)(=O)c1ccccc1-c1ccc(CN(CCCc2ccccc2)C(=O)Cc2ccsc2)cc1 [Example 226] | 34.8% |

| Structure (SMILES) | Residual activity % of the NCBE at 10 μM |
| --- | --- |
| COc1ccc(CC(=O)N(Cc2ccc(-c3ccccc3S(=O)(=O)NC#N)cc2)Cc2ccccc2Cl)cc1 [Example 174] | 50.2% |
| COc1ccc(CC(=O)N(CCc2cccs2)Cc2ccc(-c3ccccc3S(=O)(=O)NC#N)cc2)cc1 [Example 172] | 89.7% |
| COc1ccc(CCN(Cc2ccc(-c3ccccc3S(=O)(=O)NC#N)cc2)C(=O)c2cc3ccccc3s2)cc1 [Example 80] | 66.7% |
| N#CNS(=O)(=O)c1ccccc1-c1ccc(CN(Cc2ccccn2)C(=O)CCCCc2cccs2)cc1 [Example 220] | 73.2% |
| N#CNS(=O)(=O)c1ccccc1-c1ccc(CN(CC2CCCO2)C(=O)CCOc2ccccc2)cc1 (centres unmarked) [Example 348] | 46.3% |
| N#CNS(=O)(=O)c1ccccc1-c1ccc(CN(Cc2ccccc2)C(=O)NC2CCCCC2)cc1 [Example 300] | 29.4% |
| N#CNS(=O)(=O)c1ccccc1-c1ccc(CN(Cc2ccccc2Cl)C(=O)COc2ccccc2)cc1 [Example 167] | 47.5% |
| N#CNS(=O)(=O)c1ccccc1-c1ccc(CN(Cc2cccc(Cl)c2)C(=O)Nc2c(F)cccc2F)cc1 [Example 305] | 84.9% |
| N#CNS(=O)(=O)c1ccccc1-c1ccc(CN(CCc2ccc(S(N)(=O)=O)cc2)C(=O)Cc2ccccc2Cl)cc1 [Example 294] | 82.7% |
| COC(=O)C(Cc1ccccc1)N(Cc1ccc(-c2ccccc2S(=O)(=O)NC#N)cc1)C(=O)Cc1csc2ccccc12 (centres unmarked) [Example 217] | 46.0% |
| N#CNS(=O)(=O)c1ccccc1-c1ccc(CN(Cc2ccc(Cl)c(Cl)c2)C(=O)Cc2cccs2)cc1 [Example 259] | 40.1% |
| N#CNS(=O)(=O)c1ccccc1-c1ccc(CN(Cc2ccc(C(F)(F)F)cc2)C(=O)c2cccs2)cc1 [Example 89] | 67.6% |
| N#CNS(=O)(=O)c1ccccc1-c1ccc(CN(CC2CCCCC2)C(=O)C(=O)c2ccco2)cc1 [Example 258] | 95.8% |
| N#CNS(=O)(=O)c1ccccc1-c1ccc(CN(CC2CCCCC2)C(=O)C(NC(=O)OCc2ccccc2)c2ccccc2)cc1 (centres unmarked) [Example 265] | 68.9% |
| N#CNS(=O)(=O)c1ccccc1-c1ccc(CN(CCCc2ccccc2)C(=O)Cc2c[nH]c3ccccc23)cc1 [Example 202] | 38.5% |
| N#CNS(=O)(=O)c1ccccc1-c1ccc(CN(C(=O)CCOc2ccccc2)C2CCc3ccccc32)cc1 (centres unmarked) [Example 344] | 52.2% |
| N#CNS(=O)(=O)c1ccccc1-c1ccc(CN(Cc2nc3ccccc3[nH]2)C(=O)CCCc2cccs2)cc1 [Example 192] | 49.1% |
| N#CNS(=O)(=O)c1ccccc1-c1ccc(CN(C(=O)CCCc2cccs2)C2CC2)cc1 [Example 189] | 72.5% |
| C[C@H](c1ccccc1)N(Cc1ccc(-c2ccccc2S(=O)(=O)NC#N)cc1)C(=O)c1cc2ccccc2s1 [Example 78] | 88.5% |
| N#CNS(=O)(=O)c1ccccc1-c1ccc(CN(Cc2ccc3c(c2)OCO3)C(=O)c2cc3ccccc3s2)cc1 [Example 77] | 81.8% |
| COCCN(Cc1ccc(-c2ccccc2S(=O)(=O)NC#N)cc1)C(=O)CCCc1cccs1 [Example 187] | 62.4% |
| N#CNS(=O)(=O)c1ccccc1-c1ccc(CN(Cc2cccc(Cl)c2)C(=O)Cc2ccccc2Br)cc1 [Example 278] | 31.2% |
| C#CCN(Cc1ccc(-c2ccccc2S(=O)(=O)NC#N)cc1)C(=O)CCC1CCCCC1 [Example 249] | 76.1% |
| N#CNS(=O)(=O)c1ccccc1-c1ccc(CN(C(=O)Cc2ccsc2)C2CC2)cc1 [Example 229] | 86.7% |
| N#CNS(=O)(=O)c1ccccc1-c1ccc(CN(Cc2ccco2)C(=O)COc2ccccc2)cc1 [Example 164] | 76.4% |

same assay, conditions: 10 μM compound; human endothelial cells (ECV-304); related to 100% and 0% pHi recovery controls

| Structure (SMILES) | Residual activity of the NCBE at 10 μM |
| --- | --- |
| CS(=O)(=O)c1cc(-c2ccccc2S(=O)(=O)NC#N)ccc1CN(Cc1ccccc1)C(=O)Cc1cccs1 [Example 555, 4′-{[Benzyl-(2-thiophen-2-ylacetyl)amino]methyl}-3′-methylsulfonyl-biphenyl-2-sulfonylcyanamide] | 31% |
| N#CNS(=O)(=O)c1ccccc1-c1ccc(CN(Cc2ccccc2)S(=O)(=O)c2cccs2)c(Cl)c1 [Example 556, 4′-{[Benzyl-(2-thiophen-2-sulfonyl)amino]methyl}-3′-chlorobiphenyl-2-sulfonylcyanamide] | 0% |

same assay, conditions: compound at 10 μM; R(3) to R(7) hydrogen series

| Structure (SMILES) | Residual activity % of the NCBE at 10 μM |
| --- | --- |
| N#CNS(=O)(=O)c1ccccc1-c1ccc(CN(Cc2cccc(-c3ccccc3)c2)C(=O)CC2CCCC2)cc1 [Example 367] | 25.5% |
| CC(C(=O)N(Cc1ccc(-c2ccccc2S(=O)(=O)NC#N)cc1)CC1CC(C(=O)N2CCCC2)=NO1)c1cccs1 (centres unmarked) [Example 397] | 44.0% |

same assay, conditions: compound at 10 μM; sub-table with R7 substituent

| Structure (SMILES) | Residual activity % of the NCBE at 10 μM |
| --- | --- |
| Cc1ccc(-c2ccc(CN(Cc3cccc(Cl)c3Cl)C(=O)Cc3ccsc3)cc2)c(S(=O)(=O)NC#N)c1 [Example 544] | 82.2% |
| Cc1ccc(-c2ccc(CN(Cc3ccccc3F)C(=O)Cc3cccs3)cc2)c(S(=O)(=O)NC#N)c1 [Example 519] | 95.6% |
| N#CNS(=O)(=O)c1ccc(Cl)cc1-c1ccc(CN(Cc2ccccc2)C(=O)Cc2cccs2)cc1 [Example 553] | 85.7% |
| Cc1ccc(-c2ccc(CN(Cc3cccc4ccccc34)C(=O)CC3CCCCC3)cc2)c(S(=O)(=O)NC#N)c1 [Example 546] | 63.6% |
| Cc1ccc(-c2ccc(CN(Cc3ccccc3Cl)C(=O)CC3CCCCC3)cc2)c(S(=O)(=O)NC#N)c1 [Example 548] | 65.2% |
